# Test results as given in patent US20110059154A1, “CCR5 ANTAGONISTS AS PROPHYLACTICS FOR PREVENTING HIV INFECTION AND METHODS OF INHIBITING TRANSMISSION OF SAME” (priority 2008, published 2011).
# Where a name gives a salt, the structure may show the parent alone.
# Key:
# [1] = Compound toxicity, MTT dye reduction; assay type: cell-based; conditions: human, TZM-bL cells, mean ± D (n independent experiments), read-out: Cytotoxicity CC50 (TZM-bL)
# Description: Determination of compound toxicity. The viability of cells (TZM-bI) and following treatment with the compound was determined by the principle of MTT dye reduction (see references cited in Fletcher et. al.). All data are expressed as the percentage of viability for compound-treated wells compared to untreated cell control wells, and the 50% cytotoxic concentration (CC50) is defined as the concentration of the drug at which the cell/tissue viability was reduced to 50% of the drug-free control value.
# HIV-1BaL = assay: microbe, parasite or virus in culture; assay type: cell-based; conditions: Human immunodeficiency virus 1, TZM-bl, read-out: Inhibition of HIV Infection (TZM-bL cells using luciferase reporter) IC50-RS
# [2] = Initial solubility assessment in solvents useful in making vaginal devices; assay type: physicochemical
# Excerpt: Initial solubility assessments were made of Compounds 28A, 23 and 5L to evaluate compatibility in various solvents useful in making vaginal devices.
# [3] = Thermogravimetric analysis (TGA), thermal stability; assay type: physicochemical
# Description: Thermogravimetric analysis (TGA) was conducted with a TGA Q500 from TA instruments. A typical experiment involved heating the material in a platinum pan under a nitrogen purge from 25° C. to 350° C. at 10° C. per minute. Data was analyzed using the Universal using the Universal Analysis software program from TA Instruments.
# Thermogravimetric analysis (TGA) was performed on each form to evaluate the thermal stability and presence of any volatiles in the sample (FIG. 3). The onset of thermal degradation is estimated using the derivative of weigh loss curve and was measured as 276° C. and 270° C. for forms 1 and 2 respectively.
# [4] = Competition slurry experiment, relative thermodynamic stability of forms 1 and 2; assay type: physicochemical; conditions: slurry in 2-propanol and in MTBE, seeded with both forms, 1 week; PXRD and DSC
# Description: To assess the relative thermodynamic stability of forms 1 and 2, a competition slurry experiment was performed. In this experiment, the as received amorphous material was slurried in one vial containing 2-propanol and another containing MTBE. Seeds of both form 1 and form 2 were added to both vials and stirring continued for 1 week. The solid material was filtered from each vial and analyzed with PXRD and DSC.
compound,measurement,setting,value
CO/N=C(\c1ccc(Br)cc1)C1CCN(C2(C)CCN(C(=O)c3c(C)ncnc3C)CC2)CC1 [Compound 5L Tartrate],CC50,[1],476 ± 117 µM
same,IC50,HIV-1BaL,0.119 ± 0.0924 µM
CCC[C@@H](c1ccc(C(F)(F)F)cc1)N1CCN(C2(C)CCN(C(=O)c3c(C)ncnc3C)CC2)C[C@@H]1C [Compound 28A],Solubility (percent in parentheses),"[2]; PEG 400, 1.12 g/cm^3",≥ 3.4%
same,Solubility (percent in parentheses),"[2]; PG (propyleneglycol), 1.038 g/cm^3",≥ 3.6%
same,solubility,"[2]; organic solvent or mixture, PEG 400",≥ 39 mg/mL
same,solubility,"[2]; organic solvent or mixture, PG (propyleneglycol)",≥ 38.4 mg/mL
same,solubility,"[2]; pH 4.4, aqueous buffer, pH 4.4 citrate buffer",≥ 11.4 mg/mL
same,solubility,"[2]; pH 7.5, aqueous buffer, pH 7.5 phosphate buffer",< 0.33 mg/mL
same,solubility,"[2]; water, DI H20",≥ 3.85 mg/mL
CO/N=C(\c1ccc(Br)cc1)C1CCN(C2(C)CCN(C(=O)c3c(C)ncnc3C)CC2)CC1 [form 1],onset of thermal degradation,[3],276 °C
same,relative thermodynamic stability of forms 1 and 2,[4],more thermodynamically stable form
